Consider one compound from patent publication US20230265479A1 (priority 2020, published 2023).

The structures appear in SMILES notation.

The test system of assay [1] is Firefly Luciferase reporter gene driven by the C3P3-G1 system in HEK-293 cells. Type of assay: cell-based, human.
The test system of assay [2] is Firefly Luciferase reporter gene driven by the C3P3-G2 system in HEK-293 cells. Type of assay: cell-based, human.
Another assay addresses EIF2AK2 (Homo sapiens, UniProt P19525). To be noted: binds ATP-binding site; inhibits RNA-induced EIF2AK2 autophosphorylation (Jammi et al. 2003); cited from earlier work.

Broadly, the IC50 is the midpoint of a concentration-inhibition curve.

Chain of EIF2AK2 (P19525 whole entry): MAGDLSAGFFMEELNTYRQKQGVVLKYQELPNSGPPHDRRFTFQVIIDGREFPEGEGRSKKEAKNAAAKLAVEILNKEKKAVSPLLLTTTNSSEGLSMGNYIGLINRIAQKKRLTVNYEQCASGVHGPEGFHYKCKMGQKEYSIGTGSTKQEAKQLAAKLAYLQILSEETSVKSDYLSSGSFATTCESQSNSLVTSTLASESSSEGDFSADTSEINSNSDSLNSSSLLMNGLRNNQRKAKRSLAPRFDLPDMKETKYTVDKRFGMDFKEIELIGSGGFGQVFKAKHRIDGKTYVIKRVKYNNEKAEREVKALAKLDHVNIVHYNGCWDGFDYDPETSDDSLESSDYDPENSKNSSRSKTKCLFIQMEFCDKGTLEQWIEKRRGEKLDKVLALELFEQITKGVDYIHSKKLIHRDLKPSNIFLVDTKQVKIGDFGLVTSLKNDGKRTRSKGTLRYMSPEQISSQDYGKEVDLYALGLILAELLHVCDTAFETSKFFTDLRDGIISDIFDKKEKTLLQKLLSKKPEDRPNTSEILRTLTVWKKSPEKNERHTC

For the compound `O=C1Nc2ccc3ncsc3c2/C1=C/c1cnc[nH]1` [CAS 608512-97-6], the entries for the “Maximum efficacy, relative ratio vs. negative control cells” value in assay [1] and in assay [2] were 1.31 fold and 1.67 fold, respectively. Further, the IC50 on EIF2AK2 was 210 nM.
